For 28 compounds, IC50 results are on record in patent US20250161307A1, “PYRAZOLOPYRIMIDINES AS MODULATORS OF SPERMINE OXIDASE” (Janssen Pharmaceutica NV, priority 2022, published 2025).

The target of one experiment is SMOX (Homo sapiens (Human), UniProt Q9NWM0). Description: Human SMOX assay (HyPerBlu chemiluminescent detection of hydrogen peroxide). In kind it is biochemical. Particulars: 2.5 nM full length hSMOX, spermine substrate, 1 h at room temperature, luminescence read; read-out: SMOx_IC50. As to the method:
(§1) The direct detection of hydrogen peroxide produced from the enzymatic reaction of hSMOX or hPAOX in a biochemical assay format was measured using HyPerBlu (Lumigen, Southfield, MI), a small molecule boronate probe that reacts with hydrogen peroxide to generate a chemiluminescent signal. Inhibition of hSMOX or hPAOX enzyme results in a decrease in luminescence.
Test compounds (75 nL) dissolved in DMSO were added to a 384-well white assay plate (Greiner Bio-one, catalog #784075) using an ECHO Acoustic Dispenser (Labcyte). Each compound was serially diluted 3-fold in DMSO to prepare an 11-point dose response curve (columns 1-22). Column 23 and 24 contained 75 nL of 2 mM chlorhexidine and DMSO, respectively, to represent the 100% inhibited versus the neutral control reactions.
Subsequently, 3 μL/well of the substrate solution prepared in assay buffer (10 mM Hepes, pH 7.4, 150 mM NaCl, 1 mM EGTA, 0.01% Pluronic F-127, 0.05% ovalbumin) was dispensed into the assay plate followed by 3 μL/well of full length hSMOX enzyme with an N-terminal His tag from E. coli prepared in assay buffer to initiate the reactions. After a 1 h incubation at room temperature, 6 μL/well of HyPerBlu was added. After a 30 min incubation, the hydrogen peroxide product generated from the hSMOX reactions was measured using an endpoint luminescence read on the PHERAStar FS/FSX microplate reader (BMG LABTECH).
The final assay conditions included 10 mM Hepes, pH 7.4, 150 mM NaCl, 1 mM EGTA, 0.01% Pluronic F-127, 0.05% ovalbumin, 2.5 nM hSMOX, 30 µM spermine, and 1.25% DMSO.
Dose-response curves were fit and compound IC50 values were determined using Genedata Screener (Genedata AG).

The next experiment has as its target hPAOX (Homo sapiens (Human), UniProt Q6QHF9). Description: Human PAOX assay (HyPerBlu chemiluminescent detection of hydrogen peroxide). Type of experiment: biochemical. The note with it: 60 pM recombinant PAOX, 20 μM N-acetylspermine substrate. As to the method: as §1
The hPAOX assay was run and the data analyzed similarly to the hSMOX assay described above, except the reactions contained 60 pM recombinant PAOX with an N-terminal His tag expressed from sf9 insect cells and used 20 μM N-acetylspermine as the substrate.

Sequence of hPAOX (Q6QHF9 whole entry): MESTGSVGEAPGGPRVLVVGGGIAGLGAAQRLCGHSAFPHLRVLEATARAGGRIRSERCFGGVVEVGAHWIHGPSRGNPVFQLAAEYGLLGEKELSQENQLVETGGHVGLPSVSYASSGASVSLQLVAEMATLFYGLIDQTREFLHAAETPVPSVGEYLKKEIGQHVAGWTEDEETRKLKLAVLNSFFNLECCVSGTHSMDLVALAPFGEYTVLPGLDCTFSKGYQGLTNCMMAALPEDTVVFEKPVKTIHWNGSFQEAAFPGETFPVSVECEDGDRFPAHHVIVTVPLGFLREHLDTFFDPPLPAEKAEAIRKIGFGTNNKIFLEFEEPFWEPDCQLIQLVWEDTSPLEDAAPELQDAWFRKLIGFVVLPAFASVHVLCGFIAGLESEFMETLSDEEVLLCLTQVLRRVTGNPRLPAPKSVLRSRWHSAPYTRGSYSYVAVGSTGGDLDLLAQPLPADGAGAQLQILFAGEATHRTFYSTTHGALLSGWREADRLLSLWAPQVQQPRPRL
Sequence of SMOX (Q9NWM0 whole entry): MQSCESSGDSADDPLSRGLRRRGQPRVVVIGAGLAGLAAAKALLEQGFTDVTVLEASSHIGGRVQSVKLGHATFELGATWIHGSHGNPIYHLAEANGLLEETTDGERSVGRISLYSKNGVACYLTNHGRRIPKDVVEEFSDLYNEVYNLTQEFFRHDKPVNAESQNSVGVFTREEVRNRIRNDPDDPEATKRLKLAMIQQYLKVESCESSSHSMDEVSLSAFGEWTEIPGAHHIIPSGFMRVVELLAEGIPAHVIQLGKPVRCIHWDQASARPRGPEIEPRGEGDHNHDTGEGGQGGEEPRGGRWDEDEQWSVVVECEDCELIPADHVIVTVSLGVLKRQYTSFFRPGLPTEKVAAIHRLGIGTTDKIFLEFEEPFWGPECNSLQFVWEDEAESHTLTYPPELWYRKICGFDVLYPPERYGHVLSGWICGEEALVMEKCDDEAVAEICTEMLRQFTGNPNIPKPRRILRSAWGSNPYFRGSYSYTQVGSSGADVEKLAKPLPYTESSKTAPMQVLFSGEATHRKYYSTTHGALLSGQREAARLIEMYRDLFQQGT

As to `CN1CC[C@@H](NC(=O)c2cc3nc(-c4ccccc4)cc(-c4ccccc4)n3n2)C1` [Example 8, (R)—N-(1-Methylpyrrolidin-3-yl)-5,7-diphenylpyrazolo[1,5-a]pyrimidine-2-carboxamide], the IC50 at SMOX was found to be 393 nM; on hPAOX, 10700 nM.
As to `O=C(NCCCn1ccnc1)c1cc2nc(-c3ccc(C(F)(F)F)cc3)cc(-c3ccccc3)n2n1` [Example 101, N-(3-(1H-imidazol-1-yl)propyl)-7-phenyl-5-(4-(trifluoromethyl)phenyl)pyrazolo[1,5-a]pyrimidine-2-carboxamide], the IC50 at SMOX came out at 72 nM; at hPAOX, 181 nM.
For `CN1CC(NC(=O)c2cc3nc(-c4ccc(F)cc4)cc(-c4ccccc4)n3n2)C1` [Example 106, 5-(4-fluorophenyl)-N-(1-methylazetidin-3-yl)-7-phenylpyrazolo[1,5-a]pyrimidine-2-carboxamide], the IC50 on SMOX worked out at 164 nM; at hPAOX it was 485 nM.
In the case of `O=C(NCCNc1ccccn1)c1cc2nc(-c3ccccc3)cc(-c3ccccc3)n2n1` [Example 28, 5,7-Diphenyl-N-(2-(pyridin-2-ylamino)ethyl)pyrazolo[1,5-a]pyrimidine-2-carboxamide], the results for the IC50 on SMOX and on hPAOX were 156 nM and 85 nM, respectively.
With `O=C(NCCN1CCC1)c1cc2nc(-c3ccccc3)cc(-c3ccccc3)n2n1` [Example 36, N-(2-(Azetidin-1-yl)ethyl)-5,7-diphenylpyrazolo[1,5-a]pyrimidine-2-carboxamide], the IC50 came to 360 nM at SMOX and 995 nM on hPAOX.
For `O=C(NCCCn1ccnc1)c1cc2nc(-c3ccccc3)cc(N3CCC3)n2n1` [Example 56, N-(3-(1H-Imidazol-1-yl)propyl)-7-(azetidin-1-yl)-5-phenylpyrazolo[1,5-a]pyrimidine-2-carboxamide], the results for the IC50 on SMOX and at hPAOX were 874 nM and 3730 nM, respectively.
`CN1CCC(NC(=O)c2cc3nc(-c4ccccc4)cc(N4CCCCC4)n3n2)CC1` [Example 74, N-(1-methylpiperidin-4-yl)-5-phenyl-7-(piperidin-1-yl)pyrazolo[1,5-a]pyrimidine-2-carboxamide]: the IC50 at SMOX was found to be 17700 nM; at hPAOX, 9830 nM.
As for `CN1CCC(NC(=O)c2cc3nc(-c4ccccc4)cc(-c4ccccc4)n3n2)CC1` [Example 17, N-(1-Methylpiperidin-4-yl)-5,7-diphenylpyrazolo[1,5-a]pyrimidine-2-carboxamide], the IC50 was 606 nM at SMOX and 10400 nM on hPAOX.
Turning to `CC(=O)Nc1ccc(-c2cc(-c3ccccc3)nc3cc(C(=O)NCCCn4ccnc4)nn23)cc1` [Example 95, N-(3-(1H-imidazol-1-yl)propyl)-7-(4-acetamidophenyl)-5-phenylpyrazolo[1,5-a]pyrimidine-2-carboxamide], the IC50 at SMOX was more than 31200 nM; on hPAOX it was 2070 nM.
`O=C(NCCCn1ccnc1)c1cc2nc(-c3ccccc3)cc(N3CCOCC3)n2n1` [Example 59, N-(3-(1H-Imidazol-1-yl)propyl)-7-morpholino-5-phenylpyrazolo[1,5-a]pyrimidine-2-carboxamide]: the IC50 at SMOX came out at 2880 nM; at hPAOX it was 5710 nM.
The corresponding values for `CCN1CCC[C@H]1CNC(=O)c1cc2nc(-c3ccccc3)cc(-c3ccccc3)n2n1` [Example 14, (S)—N-((1-Ethylpyrrolidin-2-yl)methyl)-5,7-diphenylpyrazolo[1,5-a]pyrimidine-2-carboxamide] are 401 nM and 2440 nM.
For `CN1CC(C)(NC(=O)c2cc3nc(-c4ccccc4)cc(-c4ccccc4)n3n2)C1` [Example 42, N-(1,3-Dimethylazetidin-3-yl)-5,7-diphenylpyrazolo[1,5-a]pyrimidine-2-carboxamide], the IC50 at SMOX is 2210 nM; on hPAOX it was 6780 nM.
`NCCCNC(=O)c1cc2nc(-c3ccccc3)cc(-c3ccccc3)n2n1` [Example 116, N-(3-aminopropyl)-5,7-diphenylpyrazolo[1,5-a]pyrimidine-2-carboxamide]: the IC50 on SMOX is 296 nM; on hPAOX it was 119 nM.
As for `CC(=O)Nc1cccc(-c2cc(-c3ccccc3)nc3cc(C(=O)NCCCn4ccnc4)nn23)c1` [Example 77, N-(3-(1H-imidazol-1-yl)propyl)-7-(3-acetamidophenyl)-5-phenylpyrazolo[1,5-a]pyrimidine-2-carboxamide], the IC50 turned out to be 519 nM at SMOX and 544 nM on hPAOX.
Turning to `O=C(NCCCn1ccnc1)c1cc2nc(-c3ccccc3)cc(C3CCCO3)n2n1` (centres unmarked) [Example 110, N-(3-(1H-imidazol-1-yl)propyl)-5-phenyl-7-(tetrahydrofuran-2-yl)pyrazolo[1,5-a]pyrimidine-2-carboxamide], the IC50 came out at 1750 nM on SMOX and 3070 nM at hPAOX.
On to `O=C(NCCCc1cccnc1)c1cc2nc(-c3ccccc3)cc(-c3ccccc3)n2n1` [Example 31, 5,7-Diphenyl-N-(3-(pyridin-3-yl)propyl)pyrazolo[1,5-a]pyrimidine-2-carboxamide], for which the figures for the IC50 on SMOX and on hPAOX were 900 nM and 2100 nM, respectively.
The corresponding values for `CN1CCC(CNC(=O)c2cc3nc(-c4ccccc4)cc(-c4ccccc4)n3n2)CC1` [Example 24, N-((1-Methylpiperidin-4-yl)methyl)-5,7-diphenylpyrazolo[1,5-a]pyrimidine-2-carboxamide] are 907 nM and 1940 nM.
On to `O=C(NCCc1ccncc1)c1cc2nc(-c3ccccc3)cc(-c3ccccc3)n2n1` [Example 38, 5,7-Diphenyl-N-(2-(pyridin-4-yl)ethyl)pyrazolo[1,5-a]pyrimidine-2-carboxamide], for which the IC50 is 4580 nM at SMOX and 1140 nM at hPAOX.
The like results for `O=C(NCCCn1ccnc1)c1cc2nc(-c3ccccc3)cc(C3CCCCN3)n2n1` (centres unmarked) [Example 114, N-(3-(1H-imidazo-1-yl)propyl)-5-phenyl-7-(piperidin-2.yl)pyrazolo[1,5-a]pyrimidine-2-carboxamide] were, in that order, 776 nM and 8460 nM.
With `O=C(NCCCn1ccnc1)c1cc2nc(-c3ccccc3)cc(-c3cccc(O)c3)n2n1` [Example 87, N-(3-(1H-imidazol-1-yl)propyl)-7-(3-hydroxyphenyl)-5-phenylpyrazolo[1,5-a]pyrimidine-2-carboxamide], the IC50 stood at 303 nM on SMOX and 387 nM at hPAOX.
Regarding `CN(C)CCCNC(=O)c1cc2nc(-c3ccccc3)cc(N3CCCCC3)n2n1` [Example 70, N-(3-(dimethylamino)propyl)-5-phenyl-7-(piperidin-1-yl)pyrazolo[1,5-a]pyrimidine-2-carboxamide], the IC50 on SMOX was found to be 930 nM; on hPAOX, 3360 nM.
Consider `CN1CC(NC(=O)c2nn3c(-c4ccccc4)cc(-c4ccccc4)nc3c2C#N)C1` [Example 53, 3-Cyano-N-(1-methylazetidin-3-yl)-5,7-diphenylpyrazolo[1,5-a]pyrimidine-2-carboxamide], for which the IC50 at SMOX came to 273 nM; on hPAOX, 13300 nM.
The corresponding values for `CN1CC(NC(=O)c2cc3nc(N4CCCCC4)cc(-c4ccccc4)n3n2)C1` [Example 99, N-(1-methylazetidin-3-yl)-7-phenyl-5-(piperidin-1-yl)pyrazolo[1,5-a]pyrimidine-2-carboxamide] are 7710 nM and 7080 nM.
Take `O=C(NCCCc1ccncc1)c1cc2nc(-c3ccccc3)cc(-c3ccccc3)n2n1` [Example 9, 5,7-Diphenyl-N-(3-(pyridin-4-yl)propyl)pyrazolo[1,5-a]pyrimidine-2-carboxamide]: the figures for the IC50 on SMOX and on hPAOX were 195 nM and 1120 nM, respectively.
For the compound `CN(C)CCN(C)C(=O)c1cc2nc(-c3ccccc3)cc(-c3ccccc3)n2n1` [Example 44, N-(2-(Dimethylamino)ethyl)-N-methyl-5,7-diphenylpyrazolo[1,5-a]pyrimidine-2-carboxamide], the IC50 on SMOX is 7340 nM; at hPAOX, more than 31200 nM.
Take `O=C(NC1CNC1)c1cc2nc(-c3ccccc3)cc(-c3ccccc3)n2n1` [Example 115, N-(azetidin-3-yl)-5,7-diphenylpyrazolo[1,5-a]pyrimidine-2-carboxamide]: the IC50 turned out to be 282 nM at SMOX and 213 nM at hPAOX.
For the compound `Cc1ccc(-c2cc(-c3ccccc3)nc3cc(C(=O)NCCCn4ccnc4)nn23)cc1` [Example 83, N-(3-(1H-imidazol-1-yl)propyl)-5-phenyl-7-(p-tolyl)pyrazolo[1,5-a]pyrimidine-2-carboxamide], the figures for the IC50 on SMOX and on hPAOX were 681 nM and 818 nM, respectively.
For the compound `CN(C)CC(C)(C)CNC(=O)c1cc2nc(-c3ccccc3)cc(-c3ccccc3)n2n1` [Example 33, N-(3-(Dimethylamino)-2,2-dimethylpropyl)-5,7-diphenylpyrazolo[1,5-a]pyrimidine-2-carboxamide], the IC50 at SMOX is 314 nM; at hPAOX, more than 31200 nM.
